Assay results published in US20240189263A1, “DERIVATIZED C60 MOLECULES AND METHODS AND MATERIALS FOR USING DERIVATIZED C60 MOLECULES TO REDUCE RADIATION INJURY” (Mayo Foundation for Medical Education and Research, priority 2021, published 2024).

Key:
[1] = Stability of C60-ser, hexakis-adduct peak by HPLC-ELSD; assay type: physicochemical
Procedure: Stability of the C60-ser product as prepared in Example 1 was analyzed by measuring the hexakis-adduct peak with high performance liquid chromatography (HPLC) equipped with evaporative light scattering detector (ELSD). The C60-ser was stored as a solid form at 4° C. under nitrogen, as a solution in DI water at 4° C., and as a solution in DI water at room temperature. The stability of the C60-ser in each set of storage conditions was measured at 1, 7, 28, and 120 days (Table 1).

NIH3T3 cells [2] = experiment: ROS by H2-DCFDA probe after proton irradiation, NIH3T3; assay type: cell-based; settings: NIH3T3, pretreated 100 μM, TBHP 200 μM, 1 Gy proton, read 30 minutes post radiation
Description: Cell lines were irradiated using pencil beam scanning (PBS) proton beams produced by IBA ProteusOne (Ion Beam Applications, Louvain-la-Neuve, Belgium). Single layer mono-energy 227 MeV pencil beams with uniform spacing of 0.25 cm between each spot were used to create a large field size with uniform dose distribution (±2%) that encompassed all sample wells containing the cells. A fixed source to surface distance (SSD) setup and gantry at 180 degrees was used to delivery 0.5, 1, 2, 4, and 6 Gray (Gy) dose of ionizing radiation to cells. The cells were place at an 8 cm depth, with a linear energy transfer (LET) of approximately 1.7 keV/μm, using solid water slabs as a buildup. […] The monitor units needed to deliver the intended dose were calculated using the measure dose/MU values.
Post radiation, 2′,7′-dichlorodihydrofluorescein diacetate (H2-DCFDA) probes were used to measure the level of reactive oxygen species (ROS) post-proton radiation (1 Gy, 230 MeV proton beam). […] A fluorescence microplate reader (SpectraMax M5, Molecular Devices Corporation, California, USA) was used to detect the generation of fluorescent DCF molecules with an excitation filter of 485 nm and an emission filter of 525 nm, with a 515 nm cutoff filter. […] Following irradiation, the cells were transported back for plate reading, 30 minutes post radiation.

NIH3T3 cells [3] = experiment: DNA damage, γH2AX foci immunofluorescence, NIH3T3; assay type: cell-based
Procedure: To test the ability of C60-ser to protect against radiation injury, the level of DNA damage in response to radiation was analyzed by measuring γH2AX. The H2AX protein becomes phosphorylated into γH2AX as a result of DNA double strand breaks. This allows for the visualization and quantification of double strand break foci through immunofluorescence analysis. Cells were plated on 8 chamber slides and incubated overnight before C60-ser treatment. Three sets of slides per cell line (to be irradiated with 0, 0.5, and 1 Gy) were prepared, with the top 4 rows used as a control and the bottom 4 rows incubated with 100 μM C60-ser. Cells were incubated with C60-ser for 2 hours before irradiation with a clinical Proteus One proton machine (Ion Beam Applications, Louvain-la-Neuve, Belgium). A 230 MeV mono-energetic unmodulated broad beam of large field size that encompassed all slides containing the cells was used to deliver the 0.5 and 1 Gy doses. White solid water slabs (IBA Dosimetry, Germany) provided the necessary phantom material to place the cells at the desired 8 cm depth with an LET of approximately 1.7 keV/μm. After irradiation, cells were incubated at 37° C. with 5% CO2 for 30 minutes before washing and fixing the cells with 1% formaldehyde. The cells were permeabilized with 1% NP-40 and incubated with 5% BSA to block unspecific antibody bonding. The cells were then incubated with γH2AX primary antibody followed by a secondary antibody. Mounting media containing DAPI was used before applying cover slips and sealing the samples. Cells were imaged on an Olympus IX71 trinocular inverted fluorescence phase contrast microscope with a 40× objective. The resulting images were analyzed by ImageJ, and the foci were counted.

HepG2 cells = experiment: MTS cytotoxicity assay, HepG2; assay type: cell-based; settings: HepG2, 1-1000 μM, 24, 48 or 72 hours
Procedure: Cytotoxicity of C60-ser was determined by an MTS (3-(4,5-dimethylthiazol-2-yl)-5-(3-carboxymethoxyphenyl)-2-(4-sulfophenyl)-2H-tetrazolim) colorimetric assay on four different cell lines, each representing a different cell type. Specifically, HepG2 (liver epithelium), HUVEC (endothelial cells), N2A (neuroblastoma cells representative of normal neurons), and NIH3T3 (fibroblasts) were analyzed. The cells were seed in a 96-well tissue culture polystyrene plate at different seeding concentrations based on the cell's doubling time. HUVEC cells were seeded at 10,000 cells/well (24 hour experiments), 8,000 cells/well (48 hour experiments), and 5,000 cells/well (72 hour experiments), and incubated for 24 hours in a humidified atmosphere with 5% C02 at 37° C. […] After incubation with MTS, the optical density (OD) of the resulting formazan solution was read at 490 nm using a microplate reader (Biotek Cytation 5 cell Imaging Multi-Mode reader, Winooski, VT). The cell viability was obtained by normalizing the absorbance of the sample with that of the control wells containing untreated cells. The cell viability was expressed as a percentage, assigning the viability of non-treated cells as 100%. […]

## O=C(NC(CO)CO)C1(C(=O)NC(CO)CO)C23c4c5c6c7c8c4-c4c2c2c9c%10c4C4%11c%12c-%10c%10c%13c%14c%12-c%12c(c-7c7c%15c%12C%14%12C(C(=O)NC(CO)CO)(C(=O)NC(CO)CO)C%12%14c%12c%16c%17c%18c(c%12-%15)C7%12C(C(=O)NC(CO)CO)(C(=O)NC(CO)CO)C6%12c6c-5c5c7c(c6-%18)C%176C(C(=O)NC(CO)CO)(C(=O)NC(CO)CO)C6%12c6c-7c(c-2c2c6-c6c%12c-%16c%14c-%13c6C%106C(C(=O)NC(CO)CO)(C(=O)NC(CO)CO)C926)C513)C84C%11(C(=O)NC(CO)CO)C(=O)NC(CO)CO (stereo not drawn) [C60-ser, C60-serinol]
[1]; Solid form at 4° C. under nitrogen, 1 day
  Stability of C60-ser (hexakis-adduct peak): 100 ± 2%
[1]; Solid form at 4° C. under nitrogen, 7 days
  Stability of C60-ser (hexakis-adduct peak): 100 ± 1%
[1]; Solid form at 4° C. under nitrogen, 28 days
  Stability of C60-ser (hexakis-adduct peak): 100 ± 1%
[1]; Solid form at 4° C. under nitrogen, 120 days
  Stability of C60-ser (hexakis-adduct peak): 100 ± 2%
[1]; Solution in DI water at 4° C., 1 day
  Stability of C60-ser (hexakis-adduct peak): 100 ± 2%
[1]; Solution in DI water at 4° C., 7 days
  Stability of C60-ser (hexakis-adduct peak): 100 ± 2%
[1]; Solution in DI water at 4° C., 28 days
  Stability of C60-ser (hexakis-adduct peak): 100 ± 3%
[1]; Solution in DI water at 4° C., 120 days
  Stability of C60-ser (hexakis-adduct peak): 98 ± 3%
[1]; Solution in DI water at room temperature, 1 day
  Stability of C60-ser (hexakis-adduct peak): 100 ± 2%
[1]; Solution in DI water at room temperature, 7 days
  Stability of C60-ser (hexakis-adduct peak): 100 ± 2%
[1]; Solution in DI water at room temperature, 28 days
  Stability of C60-ser (hexakis-adduct peak): 96 ± 3%
[1]; Solution in DI water at room temperature, 120 days
  Stability of C60-ser (hexakis-adduct peak): 95 ± 4%
[1]; solid at 4° C. under nitrogen
  degradation of the hexakis-adduct peak: no degradation of the hexakis-adduct peak was observed
NIH3T3 cells [2]
  ROS (H2-DCFDA fluorescence): significant reduction in ROS
NIH3T3 cells [3]; NIH3T3, 100 μM 2 hours before 0.5 Gy proton radiation
  γH2AX foci vs control: trend towards reduction in total foci formed, but it was not statistically significant
NIH3T3 cells [3]; NIH3T3, 100 μM 2 hours before 1 Gy proton radiation
  γH2AX foci vs control: significant decrease in the number of foci
NIH3T3 cells [3]; NIH3T3, 100 μM 2 hours, absence of radiation
  γH2AX foci vs control: no significant different in foci expression
HepG2 cells
  percent viability: did not result in a significant decrease in viability
